Experimental findings from patent publication US9796719B2, “Compounds and pharmaceutical compositions thereof for the treatment of inflammatory disorders” (GALAPAGOS NV, priority 2013, dated 2017) are described below.

Molecules are shown by their SMILES. Structures can show the parent of a compound that is named as a salt.

The target of the first assay is T1, hENPP2 (UniProtKB/SwissProt Sequence ref Q13822) (Homo sapiens (Human), UniProt Q13822). The assay is described as follows: FS3 hENPP2 assay (fluorogenic substrate FS-3). Particulars: hENPP2, FS-3 as substrate. The format is biochemical. The protocol: Compound IC50 values are determined in a fluorescent hENPP2 (UniProtKB/SwissProt Sequence ref Q13822) biochemical assay using the fluorogenic autotaxin substrate FS-3 as substrate. FS-3 is a doubly labeled analog of LPC wherein the fluorophore is quenched through intramolecular energy transfer. Without hENPP2, the emission of the probe is quenched. If the substrate is hydrolyzed by hENPP2, the emission of the probe is not quenched anymore resulting in a fluorescence increase. Inhibition of hENPP2 by compounds will result in a decrease of the signal.
10 μL of a dilution series of compound, starting from 20 μM highest concentration, ⅕ dilution, is added to the wells. hENPP2 is used at a final concentration of 0.4 μg/mL or 0.64 μg/mL (it will be appreciated by the skilled person that the potency read out is independent of the enzyme concentration). The enzyme is diluted in 50 mM Tris-HCl pH 8.0, 250 mM NaCl, 5 mM KCl, 1 mM MgCl2, 1 mM CaCl2, 0.1% fatty acid free BSA in a total volume of 20 μL. Enzyme mixture is added to compounds and the resulting mixture is incubated for 30 min at room temperature under shaking. The reaction is started by the addition of 20 μL of 0.75 μM FS-3 diluted in the same buffer as described above and the mixture is incubated at 30° C. for 30 min. Fluorescence is read on the Envision (Excitation 485 nm, emission 520 nm).
Molecule `CCc1nc2ccc(N3CCN(CC(=O)N4CC(O)C4)CC3)nn2c1N(C)c1nc(-c2ccc(F)cc2)c(C#N)s1` [Cpd 27, 2-((2-ethyl-6-(4-(2-(3-hydroxyazetidin-1-yl)-2-oxoethyl)piperazin-1-yl)imidazo[1,2-b]pyridazin-3-yl)(methyl)amino)-4-(4-fluorophenyl) thiazole-5-carbonitrile] returned an IC50 of 0.01 to 25 nM.

`CCc1nc2cnc(N3CCN(CC(=O)N4CCC4)CC3)cn2c1N(C)c1nc(-c2ccc(F)cc2)c(C#N)s1` [Cpd 4, 2-((6-(4-(2-(azetidin-1-yl)-2-oxoethyl)piperazin-1-yl)-2-ethylimidazo[1,2-a]pyrazin-3-yl)(methyl)amino)-4-(4-fluorophenyl) thiazole-5-carbonitrile]: the half-maximal inhibitory concentration (IC50) is 0.01 to 25 nM.

Consider `CN(c1nc(-c2ccc(F)cc2)cs1)c1c(CCC(N)=O)nc2ccc(C3CCN(S(C)(=O)=O)CC3)nn12` [Compound 197, 3-(3-((4-(4-fluorophenyl)thiazol-2-yl)(methyl)amino)-6-(1-(methylsulfonyl)piperidin-4-yl)imidazo[1,2-b]pyridazin-2-yl)propanamide], for which the IC50 lay within 0.01 to 25 nM.

`CCc1nc2ccc(C3=CCN(C(=O)OC(C)(C)C)CC3)nn2c1N(C)c1nc(-c2ccc(F)cc2)cs1` [Compound 193, tert-butyl 4-(2-ethyl-3-((4-(4-fluorophenyl)thiazol-2-yl)(methyl)amino)imidazo[1,2-b]pyridazin-6-yl)-5,6-dihydropyridine-1(2H)-carboxylate] yielded an IC50 of 0.01 to 25 nM.

For a further assay, the target named is T1, hENPP2. The assay is described as follows: LPC hENPP2 assay (choline release, LPC as substrate). The format is biochemical.
Details: not given
A digest of the protocol: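 Detection is coupled: choline oxidase produces peroxide, which HRP uses to form quinoneimine dye from TOOS and 4-aminoantipyrine, read at 555 nm. The reaction is stopped with 20 mM EGTA in the developer mix, then incubated 30 min at room temperature; inhibition lowers signal.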
`CCc1nc2ccc(N3CCN(CC(=O)N4CC(O)C4)CC3)nn2c1N(C)c1nc(-c2ccc(F)cc2)c(C#N)s1` [Cpd 27, 2-((2-ethyl-6-(4-(2-(3-hydroxyazetidin-1-yl)-2-oxoethyl)piperazin-1-yl)imidazo[1,2-b]pyridazin-3-yl)(methyl)amino)-4-(4-fluorophenyl) thiazole-5-carbonitrile] returned an IC50 of 0.01 to 100 nM.

Molecule `CCc1nc2cnc(N3CCN(CC(=O)N4CCC4)CC3)cn2c1N(C)c1nc(-c2ccc(F)cc2)c(C#N)s1` [Cpd 4, 2-((6-(4-(2-(azetidin-1-yl)-2-oxoethyl)piperazin-1-yl)-2-ethylimidazo[1,2-a]pyrazin-3-yl)(methyl)amino)-4-(4-fluorophenyl) thiazole-5-carbonitrile] registered an IC50 of 100 to 500 nM.

In the case of `CN(c1nc(-c2ccc(F)cc2)cs1)c1c(CCC(N)=O)nc2ccc(C3CCN(S(C)(=O)=O)CC3)nn12` [Compound 197, 3-(3-((4-(4-fluorophenyl)thiazol-2-yl)(methyl)amino)-6-(1-(methylsulfonyl)piperidin-4-yl)imidazo[1,2-b]pyridazin-2-yl)propanamide], the IC50 was 500 to 1000 nM.

As for `CCc1nc2ccc(N3CCN(S(C)(=O)=O)[C@H](COC)C3)nn2c1N(C)c1nc(-c2ccc(F)cc2)cs1` [Compound 62, (S)—N-(2-ethyl-6-(3-(methoxymethyl)-4-(methylsulfonyl)piperazin-1-yl)imidazo[1,2-b]pyridazin-3-yl)-4-(4-fluorophenyl)-N-methylthiazol-2-amine], the IC50 was more than 1000 nM.

In the case of `CCc1nc2ccc(N3CCC(NC(=O)CO)CC3)nn2c1N(C)c1nc(-c2ccc(F)cc2)cs1` [Cpd 85, N-(1-(2-ethyl-3-((4-(4-fluorophenyl)thiazol-2-yl)(methyl)amino)imidazo[1,2-b]pyridazin-6-yl)piperidin-4-yl)-2-hydroxyacetamide], the IC50 was more than 1000 nM.

For `CCc1nc2ccc(N3CCC(CO)C3)nn2c1N(C)c1nc(-c2ccc(F)cc2)c(C#N)s1` (stereo not drawn) [Cpd 173, 2-((2-ethyl-6-(3-(hydroxymethyl)pyrrolidin-1-yl)imidazo[1,2-b]pyridazin-3-yl)(methyl)amino)-4-(4-fluorophenyl) thiazole-5-carbonitrile], the IC50 lay in the range of 100 to 500 nM.

The molecule `CCc1nc2ccc(N3CCN(CC(=O)NC)CC3)nn2c1N(C)c1nc(-c2ccc(F)cc2)cs1` [Cpd 30] came in with an IC50 of 500 to 1000 nM.

The molecule `CCc1nc2ccc(N3CCC(N4CCC(OC)CC4)C3)nn2c1N(C)c1nc(-c2ccc(F)cc2)c(C#N)s1` (stereo not drawn) [Cpd 183, 2-((2-ethyl-6-(3-(4-methoxypiperidin-1-yl)pyrrolidin-1-yl)imidazo[1,2-b]pyridazin-3-yl)(methyl)amino)-4-(4-fluorophenyl) thiazole-5-carbonitrilc] showed an IC50 of 0.01 to 100 nM.

In the case of `CCc1nc2ccc(N3CCCC4(CNC(=O)O4)C3)nn2c1N(C)c1nc(-c2ccc(F)cc2)c(C#N)s1` (stereo not drawn) [Cpd 162, 2-((2-ethyl-6-(2-oxo-1-oxa-3,7-diazaspiro[4.5]decan-7-yl)imidazo [1,2-b]pyridazin-3-yl)(methyl)amino)-4-(4-fluorophenyl) thiazole-5-carbonitrile], the IC50 lay within 100 to 500 nM.

The molecule `CCc1nc2ccc(N3CCN(CCCO)CC3)nn2c1N(C)c1nc(-c2ccc(F)cc2)c(CO)s1` [Cpd 50, 3-(4-(2-ethyl-3-((4-(4-fluorophenyl)-5-(hydroxymethyl)thiazol-2-yl)(methyl)amino)imidazo[1,2-b]pyridazin-6-yl)piperazin-1-yl)propan-1-ol] returned an IC50 of more than 1000 nM.

`CCc1nc2ccc(N3CCN(C4CCN(Cc5ccc(OC)cc5)C4=O)CC3)nn2c1N(C)c1nc(-c2ccc(F)cc2)cs1` (stereo not drawn) [Cpd 70, 3-(4-(2-ethyl-3-((4-(4-fluorophenyl)thiazol-2-yl)(methyl)amino)imidazo[1,2-b]pyridazin-6-yl)piperazin-1-yl)-1-(4-methoxybenzyl) pyrrolidin-2-one] had a 50% inhibitory concentration (IC50) of 500 to 1000 nM.

The molecule `CCc1nc2ccc(N3CC(CO)C3)nn2c1N(C)c1nc(-c2ccc(F)cc2)cs1` [Cpd 153, (1-(2-ethyl-3-((4-(4-fluorophenyl)thiazol-2-yl)(methyl)amino)imidazo[1,2-b]pyridazin-6-yl)azetidin-3-yl)methanol] yielded an IC50 of more than 1000 nM.

In turn, `CCc1nc2ccc(N3C[C@H]4C[C@H]3CN4C(C)=O)nn2c1N(C)c1nc(-c2ccc(F)cc2)cs1` [Cpd 75, 1-((1R,4S)-5-(2-ethyl-3-((4-(4-fluorophenyl)thiazol-2-yl)(methyl)amino)imidazo[1,2-b]pyridazin-6-yl)-2,5-diazabicyclo[2.2.1]heptan-2-yl)ethanone] yielded an IC50 of more than 1000 nM.

`CCc1nc2ccc(N3CCC(C(=O)OC)C3)nn2c1N(C)c1nc(-c2ccc(F)cc2)cs1` (stereo not drawn) [Cpd 139, 1-(2-Ethyl-3-{[4-(4-fluoro-phenyl)-thiazol-2-yl]-methyl-amino}-imidazo[1,2-b]pyridazin-6-yl)-pyrrolidine-3-carboxylic acid methyl ester] showed an IC50 of more than 1000 nM.

`CCc1nc2ccc(C3CCN(CC(=O)N(C)C)CC3)nn2c1N(C)c1nc(-c2ccc(F)cc2)c(CO)s1` [Cpd 203, 2-(4-(2-ethyl-3-((4-(4-fluorophenyl)-5-(hydroxymethyl)thiazol-2-yl)(methyl)amino)imidazo[1,2-b]pyridazin-6-yl)piperidin-1-yl)-N,N-dimethylacetamide] had an IC50 of 500 to 1000 nM.

Take `CCc1nc2ccc(N3CCC(N4CCC(CO)CC4)C3)nn2c1N(C)c1nc(-c2ccc(F)cc2)c(C#N)s1` (stereo not drawn) [Cpd 179, 2-((2-ethyl-6-(3-(4-(hydroxymethyl)piperidin-1-yl)pyrrolidin-1-yl)imidazo[1,2-b]pyridazin-3-yl)(methyl)amino)-4-(4-fluorophenyl) thiazole-5-carbonitrile]: the IC50 was 0.01 to 100 nM.

`CCc1nc2ccc(N3CCC(CNC(=O)N(C)C)CC3)nn2c1N(C)c1nc(-c2ccc(F)cc2)cs1` [Cpd 106, 3-((l-(2-ethyl-3-((4-(4-fluorophenyl)thiazol-2-yl)(methyl)amino)imidazo[1,2-b]pyridazin-6-yl)piperidin-4-yl)methyl)-1,1-dimethylurea] had an IC50 of more than 1000 nM.

The molecule `CCc1nc2ccc(N3CC(C(=O)N4CCC(O)C4)C3)nn2c1N(C)c1nc(-c2ccc(F)cc2)cs1` (stereo not drawn) [Cpd 159, (1-(2-ethyl-3-((4-(4-fluorophenyl)thiazol-2-yl)(methyl)amino)imidazo[1,2-b]pyridazin-6-yl)azetidin-3-yl)(3-hydroxypyrrolidin-1-yl)methanone] gave an IC50 of more than 1000 nM.

`CCc1nc2ccc(N3CC[C@@H](NCC(=O)N(C)C)C3)nn2c1N(C)c1nc(-c2ccc(F)cc2)c(C#N)s1` [Cpd 177, (R)-2-(1(3-((5-cyano-4-(4-fluorophenyl)thiazol-2-yl)(methyl)amino)-2-ethylimidazo[1,2-b]pyridazin-6-yl)pyrrolidin-3-ylamino)-N,N-dimethylacetamide] returned an IC50 of 0.01 to 100 nM.

In the case of `CCc1nc2ccc(N3CC[C@@H](NCC(=O)N4CC(O)C4)C3)nn2c1N(C)c1nc(-c2ccc(F)cc2)c(C#N)s1` [Cpd 176, (R)-2-((2-ethyl-6-(3-(2-(3-hydroxyazetidin-1-yl)-2-oxoethylamino)pyrrolidin-1-yl)imidazo[1,2-b]pyridazin-3-yl)(methyl)amino)-4-(4-fluorophenyl) thiazole-5-carbonitrile], the IC50 fell in the range of 0.01 to 100 nM.

As to `CCc1nc2ccc(C3CCN(CC(=O)N4CC(O)C4)CC3)nn2c1N(C)c1nc(-c2ccc(F)cc2C#N)c(C)s1` [Cpd 210, 2-(2-((2-ethyl-6-(1-(2-(3-hydroxyazetidin-1-yl)-2-oxoethyl)piperidin-4-yl)imidazo[1,2-b]pyridazin-3-yl)(methyl)amino)-5-methylthiazol-4-yl)-5-fluorobenzonitrile], the IC50 is more than 1000 nM.

`CCc1nc2ccc(N3CCC(OC=O)C3)nn2c1N(C)c1nc(-c2ccc(F)cc2)cs1` (stereo not drawn) [Compound 130, 1-(2-ethyl-3-((4-(4-fluorophenyl)thiazol-2-yl)(methyl)amino)imidazo[1,2-b]pyridazin-6-yl)pyrrolidin-3-yl formate] displayed an IC50 of more than 1000 nM.

For the molecule `CCc1nc2ccc(N3CCC4(CN(C)C(=O)O4)C3)nn2c1N(C)c1nc(-c2ccc(F)cc2)cs1` (stereo not drawn) [Cpd 119, 7-(2-ethyl-3-((4-(4-fluorophenyl)thiazol-2-yl)(methyl)amino)imidazo[1,2-b]pyridazin-6-yl)-3-methyl-1-oxa-3,7-diazaspiro[4.4] nonan-2-one], the IC50 is 100 to 500 nM.

Usually IC50 stands for the midpoint of a concentration-inhibition curve. Read a low IC50 as inhibition by little substance.
